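How tested: cells in 96-well plates exposed to compound for 48 hours at five concentrations. Abbreviation: GI50, concentration required for 50% inhibition of growth.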 Activity calls are given as the source filed them. Rule as the data show it: active = GI50 up to about 1.1 µM and inactive = higher.
How the values were obtained:
Assay in all cases: inhibition of tumour cell growth, NCI panel, 48 h
A498 = tested on: A498
ACHN = tested on: ACHN
CAKI-1 = tested on: CAKI-1
DMS-114 = tested on: DMS-114
LOX IMVI = tested on: LOX IMVI
M14 = tested on: M14
MOLT-4 = tested on: MOLT-4
Malme-3M = tested on: Malme-3M
NCI-H226 = tested on: NCI-H226
OVCAR-4 = tested on: OVCAR-4
OVCAR-8 = tested on: OVCAR-8
SF-539 = tested on: SF-539
SK-MEL-28 = tested on: SK-MEL-28
SN12C = tested on: SN12C
SNB-19 = tested on: SNB-19
SNB-75 = tested on: SNB-75
M19-MEL = tested on: M19-MEL
SR = tested on: SR

Measured: GI50

Cc1nnc2c3nnc(C)n3c3ccccc3n12
inactive: A498 > 100 µM | ACHN > 100 µM | CAKI-1 > 100 µM | DMS-114 > 100 µM | LOX IMVI > 100 µM | M14 > 100 µM | MOLT-4 > 100 µM | Malme-3M > 100 µM | NCI-H226 > 100 µM | OVCAR-4 > 100 µM | OVCAR-8 > 100 µM | SF-539 > 100 µM | SK-MEL-28 > 100 µM | SN12C > 100 µM | SNB-19 > 100 µM | SNB-75 > 100 µM

N#CCC(=O)Nc1cccc(C(F)(F)F)c1
inactive: A498 > 100 µM | ACHN > 100 µM | CAKI-1 > 100 µM | LOX IMVI > 100 µM | M14 > 100 µM | M19-MEL > 100 µM | MOLT-4 > 100 µM | Malme-3M > 100 µM | NCI-H226 > 100 µM | OVCAR-4 > 100 µM | OVCAR-8 > 100 µM | SF-539 > 100 µM | SK-MEL-28 > 100 µM | SN12C > 100 µM | SNB-19 > 100 µM | SNB-75 > 100 µM | SR > 100 µM

CC(=O)c1ccccc1NC(=O)C(=O)C(C(=O)c1ccccc1-c1ccccc1)C1OC(=O)c2ccccc21 (stereo not given)
inactive: A498 20.5 µM | ACHN 22.5 µM | CAKI-1 37.8 µM | LOX IMVI 18.7 µM | M14 18.2 µM | M19-MEL 17.2 µM | MOLT-4 24.8 µM | Malme-3M 15.5 µM | NCI-H226 14.9 µM | OVCAR-4 33.7 µM | OVCAR-8 19.1 µM | SF-539 17.8 µM | SN12C 17.1 µM | SNB-19 22.1 µM | SNB-75 25.5 µM | SR 21.6 µM

CC(=O)Nc1ccc(S(=O)(=O)N/N=C(\C)CN2C(=O)c3ccccc3C2=O)cc1
inactive: A498 > 100 µM | ACHN > 100 µM | CAKI-1 > 100 µM | M14 > 100 µM | M19-MEL > 100 µM | MOLT-4 > 100 µM | Malme-3M > 100 µM | NCI-H226 > 100 µM | OVCAR-4 > 100 µM | OVCAR-8 > 100 µM | SF-539 > 100 µM | SN12C 55.2 µM | SNB-19 > 100 µM | SNB-75 75.5 µM | SR > 100 µM

c1cnc2c(c1)-n1cccc1C1(CCSCC1)NN2
inactive: ACHN > 100 µM | CAKI-1 88.5 µM | LOX IMVI 68.7 µM | M14 > 100 µM | M19-MEL 48.5 µM | MOLT-4 50.2 µM | Malme-3M > 100 µM | NCI-H226 59 µM | OVCAR-4 > 100 µM | OVCAR-8 > 100 µM | SF-539 > 100 µM | SK-MEL-28 > 100 µM | SN12C > 100 µM | SNB-19 > 100 µM | SNB-75 53.5 µM | SR 61.8 µM
